# According to patent publication US8653040B2, “Compositions containing sesamin-class compound(s) and quercetin glycoside(s)” (Suntory Holdings Limited, priority 2007, dated 2014):
# Test: Blood (plasma) concentration of sesamin and episesamin in rats after oral administration of the mixture of sesamin-class compounds alone or simultaneously with a test substance (LC-MS/MS)
# Details: Example 3, 10 mg/kg sesamin-class compounds plus 200 μmol/kg test flavonoid glycoside in 0.5% CMC suspension
# Method: SD (IGS) male rats (7-wk old) were purchased from CHARLES RIVER JAPAN INC. and habituated in the test environment for a week; the animals that were seen to grow normally were selected and subjected to the test. […] After adding an internal standard (UDESMIN; Funakoshi Co., Ltd.) to the samples, solid-phase extraction was performed with Oasis HLB and the resulting solution was concentrated under vacuum, suspended in methanol, passed through a filter, and subjected to LC-MS/MS for quantification of sesamin. The quantities of the sesamin-class compounds were determined from the ratio between their peak area and that of UDESMIN used as the internal standard. […]
substance,measurement,value
αG-hesperidin,bodily absorption amount (AUC) of the sesamin-class compounds relative to the control,0.71 times
